Results published in patent US7962204B2 (priority 2001, dated 2011).

Tested on: behaviorally-diagnosed psychiatric conditions (DSM categories)
Design: species or system human
Conditions: in vivo
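Wherever use code of agent in 301.7 Antisocial Personality Disorder is given: N marks novel agent found effective in subject subgroups.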
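Wherever use code of agent in 301.83 Borderline Personality Disorder is given: N marks novel agent found effective in subject subgroups.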
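Wherever use in 307.50 Eating Disorder NOS is given: N marks novel agent found effective in subject subgroups.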
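Wherever use in 307.51 Bulimia Nervosa is given: N marks novel agent found effective in subject subgroups.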

Cc1nc2n(c(=O)c1CCN1CCC(c3noc4cc(F)ccc34)CC1)CCCC2 [RISPERDONE]
N: use in 300.22 Agoraphobia Without History of Panic Disorder

NC1=NC(=O)C(c2ccccc2)O1 (stereo not shown) [PEMOLINE]
N: use code of agent in 294.8 Amnestic Disorder | use code of agent in 294.9 Cognitive Disorder NOS | use code of agent in 296.90 Mood Disorder NOS | use code of agent in 300.4 Dysthymic Disorder | use code of agent in 301.13 Cyclothymic Disorder | use code of agent in 307.1 Anorexia Nervosa | use code of agent in 307.50 Eating Disorder NOS | use code of agent in 307.51 Bulimia Nervosa | use code of agent in 312.30 Impulse-Control Disorder NOS | use code of agent in 312.31 Pathological Gambling | use code of agent in 312.8 Conduct Disorder | use code of agent in 313.81 Oppositional Defiant Disorder | use code of agent in 315.9 Learning Disorder NOS | use of agent in DSM category (C/N code)

C[C@H](N)Cc1ccccc1 [DEXEDRINE]
N: use code of agent in 294.9 Cognitive Disorder NOS | use code of agent in 296.90 Mood Disorder NOS | use code of agent in 300.4 Dysthymic Disorder | use code of agent in 301.13 Cyclothymic Disorder | use code of agent in 307.1 Anorexia Nervosa | use code of agent in 307.50 Eating Disorder NOS | use code of agent in 307.51 Bulimia Nervosa | use code of agent in 312.30 Impulse-Control Disorder NOS | use code of agent in 312.31 Pathological Gambling | use code of agent in 312.39 Trichotillomania | use code of agent in 312.8 Conduct Disorder | use code of agent in 313.81 Oppositional Defiant Disorder | use code of agent in 315.9 Learning Disorder NOS

N[C@@H](Cc1ccc(O)cc1)C(=O)O [TYROSINE]
N: use in Dementia of the Alzheimer's Type

Nc1nnc(-c2cccc(Cl)c2Cl)c(N)n1 [LAMOTRIGINE]
N: use in Dementia of the Alzheimer's Type

NC(=O)C[S+]([O-])C(c1ccccc1)c1ccccc1 (stereo not shown) [MODAFINIL]
N: use code of agent in 294.8 Amnestic Disorder

Cc1ccc(-c2nc3ccc(C)cn3c2CC(=O)N(C)C)cc1 [ZOLIPIDEM]
N: use of the agent in the diagnostic category (C = common use; N = novel use from rEEG features)

COC(=O)C(c1ccccc1)C1CCCCN1 (stereo not shown) [METHYLPHENIDATE]
N: use code of agent in 294.9 Cognitive Disorder NOS | use code of agent in 296.90 Mood Disorder NOS | use code of agent in 300.4 Dysthymic Disorder | use code of agent in 301.13 Cyclothymic Disorder | use code of agent in 307.1 Anorexia Nervosa | use code of agent in 307.50 Eating Disorder NOS | use code of agent in 307.51 Bulimia Nervosa | use code of agent in 312.30 Impulse-Control Disorder NOS | use code of agent in 312.31 Pathological Gambling | use code of agent in 312.39 Trichotillomania | use code of agent in 312.8 Conduct Disorder | use code of agent in 313.81 Oppositional Defiant Disorder | use code of agent in 315.9 Learning Disorder NOS

COC(=O)C(c1ccccc1)C1CCCCN1 (stereo not shown) [SR METHYLPHENIDATE]
N: use code of agent in 294.8 Amnestic Disorder | use code of agent in 296.89 Bipolar II Disorder | use code of agent in 312.34 Intermittent Explosive Disorder | use code of agent in Dementia of the Alzheimer's Type | use in 299.80 Pervasive Developmental Disorder NOS | use in 300.00 Anxiety Disorder NOS | use in 300.02 Generalized Anxiety Disorder | use in 300.22 Agoraphobia Without History of Panic Disorder | use in 300.23 Social Phobia | use in 300.29 Specific Phobia | use in 300.3 Obsessive-Compulsive Disorder | use in 307.22 Chronic Motor or Vocal Tic Disorder | use in 307.9 Communication Disorder NOS | use in 309.21 Separation Anxiety Disorder | use in 309.81 Posttraumatic Stress Disorder | use in Panic Disorder | use of agent in DSM category (C/N code) | use of the agent in the diagnostic category (C = common use; N = novel use from rEEG features)

N=C(N)NC(=O)Cc1c(Cl)cccc1Cl [[…]]
N: use code of agent in 316 Psychological Factors Affecting Medical Condition, Hypertensive Disorder NOS

NNCCc1ccccc1 [PHENALZINE]
N: use code of agent in 301.20 Schizoid Personality Disorder | use code of agent in 301.4 Obsessive-Compulsive Personality Disorder | use code of agent in 301.50 Histrionic Personality Disorder | use code of agent in 301.6 Dependent Personality Disorder | use code of agent in 301.7 Antisocial Personality Disorder | use code of agent in 301.82 Avoidant Personality Disorder | use code of agent in 301.83 Borderline Personality Disorder | use code of agent in 302.71 Hypoactive Sexual Desire Disorder | use code of agent in 307.42 Primary Insomnia | use code of agent in 311 Depressive Disorder NOS | use code of agent in 316 Psychological Factors Affecting Medical Condition, Atypical Asthma | use code of agent in 316 Psychological Factors Affecting Medical Condition, Neurodermatitis | use code of agent in Bipolar I Disorder | use code of agent in Major Depressive Disorder, Recurrent | use code of agent in Major Depressive Disorder, Single Episode | use in 294.9 Cognitive Disorder NOS | use in 296.89 Bipolar II Disorder | use in 296.90 Mood Disorder NOS | use in 299.80 Pervasive Developmental Disorder NOS | use in 300.00 Anxiety Disorder NOS | use in 300.22 Agoraphobia Without History of Panic Disorder | use in 300.23 Social Phobia | use in 300.29 Specific Phobia | use in 300.3 Obsessive-Compulsive Disorder | use in 300.4 Dysthymic Disorder | use in 301.13 Cyclothymic Disorder | use in 307.1 Anorexia Nervosa | use in 307.50 Eating Disorder NOS | use in 307.51 Bulimia Nervosa | use in 309.21 Separation Anxiety Disorder | use in 309.81 Posttraumatic Stress Disorder | use in 312.31 Pathological Gambling | use in 312.34 Intermittent Explosive Disorder | use in 312.39 Trichotillomania | use in 312.8 Conduct Disorder | use in 313.81 Oppositional Defiant Disorder | use in 315.9 Learning Disorder NOS | use in Attention-Deficit/Hyperactivity Disorder | use in Panic Disorder | use of the agent in the diagnostic category (C = common use; N = novel use from rEEG features)

CC(NC(C)(C)C)C(=O)c1cccc(Cl)c1 (stereo not shown) [BUPROPRION (REGULAR TABS)]
N: use code of agent in 301.20 Schizoid Personality Disorder | use code of agent in 301.22 Schizotypal Personality Disorder | use code of agent in 301.4 Obsessive-Compulsive Personality Disorder | use code of agent in 301.50 Histrionic Personality Disorder | use code of agent in 301.6 Dependent Personality Disorder | use code of agent in 301.7 Antisocial Personality Disorder | use code of agent in 301.82 Avoidant Personality Disorder | use code of agent in 301.83 Borderline Personality Disorder | use code of agent in 302.71 Hypoactive Sexual Desire Disorder | use code of agent in 307.42 Primary Insomnia | use code of agent in 311 Depressive Disorder NOS | use code of agent in 316 Psychological Factors Affecting Medical Condition, Atypical Asthma | use code of agent in 316 Psychological Factors Affecting Medical Condition, Neurodermatitis | use code of agent in Bipolar I Disorder | use in 294.8 Amnestic Disorder | use in 294.9 Cognitive Disorder NOS | use in 296.89 Bipolar II Disorder | use in 299.80 Pervasive Developmental Disorder NOS | use in 300.00 Anxiety Disorder NOS | use in 300.02 Generalized Anxiety Disorder | use in 300.22 Agoraphobia Without History of Panic Disorder | use in 300.23 Social Phobia | use in 300.29 Specific Phobia | use in 300.3 Obsessive-Compulsive Disorder | use in 301.13 Cyclothymic Disorder | use in 307.1 Anorexia Nervosa | use in 307.50 Eating Disorder NOS | use in 307.51 Bulimia Nervosa | use in 307.9 Communication Disorder NOS | use in 309.21 Separation Anxiety Disorder | use in 309.81 Posttraumatic Stress Disorder | use in 312.30 Impulse-Control Disorder NOS | use in 312.31 Pathological Gambling | use in 312.34 Intermittent Explosive Disorder | use in 312.39 Trichotillomania | use in 312.8 Conduct Disorder | use in 313.81 Oppositional Defiant Disorder | use in 315.9 Learning Disorder NOS | use in Attention-Deficit/Hyperactivity Disorder | use in Panic Disorder | use of the agent in the diagnostic category (C = common use; N = novel use from rEEG features)

CC(C)CC(N(C)C)C1(c2ccc(Cl)cc2)CCC1 (stereo not shown) [SILBTRMIN]
N: use code of agent in 312.34 Intermittent Explosive Disorder | use in 307.22 Chronic Motor or Vocal Tic Disorder | use of the agent in the diagnostic category (C = common use; N = novel use from rEEG features)
